Values after ≈ are worked out from the molar mass of the structure shown.
Tests used:
[1] = test system: Plasmodium berghei; assay: Antimalarial activity against Plasmodium berghei infected in human Huh7 cells after 1 hr by luciferase reporter gene assay; format: functional, organism-based; settings: Huh-7, 1 h
[2] = test system: Plasmodium falciparum; assay: Antimalarial activity against erythrocytic stage of Plasmodium falciparum by HRP2 assay; format: functional, organism-based
[3] = test system: Plasmodium falciparum; assay: Antimalarial activity against chloroquine-sensitive Plasmodium falciparum 3D7 by HRP2 assay; format: functional, organism-based
[4] = test system: Plasmodium falciparum; assay: Antimalarial activity against Plasmodium falciparum Dd2 by HRP2 assay; format: functional, organism-based
[5] = test system: Staphylococcus aureus; assay: Anti-biofilm activity against Staphylococcus aureus 630 after 24 hrs in aerobic condition by broth microdilution assay; format: functional
[6] = test system: Staphylococcus aureus; assay: Anti-biofilm activity against Staphylococcus aureus 3202 after 24 hrs in aerobic condition by broth microdilution assay; format: functional
[7] = test system: Human coronavirus 229E; assay: Antiviral activity against Human coronavirus 229E; format: functional, organism-based
[8] = test system: Escherichia coli; assay: Anti-biofilm activity against Escherichia coli; format: functional
[9] = test system: Escherichia coli; assay: Antimicrobial activity against Escherichia coli; format: functional
[10] = test system: Pseudomonas aeruginosa; assay: Antimicrobial activity against Pseudomonas aeruginosa; format: functional
[11] = test system: Staphylococcus aureus; assay: Antimicrobial activity against Staphylococcus aureus; format: functional
[12] = test system: Mammalian orthoreovirus 1; assay: Antiviral activity against Reovirus-1; format: functional, organism-based
[13] = test system: Sindbis virus; assay: Antiviral activity against Sindbis virus; format: functional, organism-based
[14] = test system: Punta Toro virus; assay: Antiviral activity against Punta Toro virus; format: functional, organism-based
[15] = test system: Coxsackievirus B4; assay: Antiviral activity against Coxsackievirus B4; format: functional, organism-based; settings: Enterovirus B

IC50 [1] [µM] | IC50 [2] [µM] | IC50 [3] [µM] | IC50 [4] [µM] | EC50 [7] [µM] | Structure (SMILES) | other results
0.11 to 0.39 | 7.74 to 18.4 | 7.74 to 18.4 | 7.74 to 18.4 | – | COc1cc(NC(C)CCCNC(=O)/C=C/C(=O)Nc2ccc(C(F)(F)F)cc2)c2ncccc2c1 (centres undefined) | –
0.11 to 0.39 | 7.74 to 18.4 | 7.74 to 18.4 | 7.74 to 18.4 | – | COc1cc(NC(C)CCCNC(=O)/C=C/C(=O)Nc2cccc(C(F)(F)F)c2)c2ncccc2c1 (centres undefined) | EC50 [12]: 3.1 to 5.5 µM; EC50 [13]: 3.1 to 5.5 µM; EC50 [14]: 3.1 to 5.5 µM; EC50 [15]: 3.1 µM
– | – | – | – | 7.9 to 15 | COc1cc(NC(C)CCCNC(=O)NNC(=O)/C=C/c2cccc(C(F)(F)F)c2)c2ncccc2c1 (centres undefined) | –
– | – | – | – | 7.9 to 15 | COc1cc(NC(C)CCCNC(=O)NNC(=O)/C=C/c2ccc3c(c2)OCO3)c2ncccc2c1 (centres undefined) | –
– | – | – | – | 7.9 to 15 | COc1cc(NC(C)CCCNC(=O)NNC(=O)/C=C/c2ccc(C(F)(F)F)cc2)c2ncccc2c1 (centres undefined) | –
0.11 to 0.39 | 7.74 to 18.4 | 7.74 to 18.4 | 7.74 to 18.4 | – | COc1cc(NC(C)CCCNC(=O)/C=C/C(=O)Nc2cccc(Cl)c2)c2ncccc2c1 (centres undefined) | EC50 [12]: 3.1 to 5.5 µM; EC50 [13]: 3.1 to 5.5 µM; EC50 [14]: 3.1 to 5.5 µM
0.11 to 0.39 | 7.74 to 18.4 | 7.74 to 18.4 | 7.74 to 18.4 | – | COc1cc(NC(C)CCCNC(=O)/C=C/C(=O)Nc2ccc(Cl)cc2)c2ncccc2c1 (centres undefined) | –

Further lines, the compound ahead of its results:

Structure (SMILES) | IC50 [1] [µM] | IC50 [2] [µM] | IC50 [3] [µM] | IC50 [4] [µM] | EC50 [7] [µM] | other results
COc1cc(NC(C)CCCNC(=O)/C=C/C(=O)Nc2ccc(F)cc2)c2ncccc2c1 (centres undefined) | 0.11 to 0.39 | 7.74 to 18.4 | 7.74 to 18.4 | 7.74 to 18.4 | – | MBEC [5]: 6.3 µg/mL; MBEC [6]: 6.3 µg/mL
COc1cc(NC(C)CCCN)c2ncccc2c1 (centres undefined) [PRIMAQUINE] | 8.4 | – | – | – | – | –
COc1cc(NC(C)CCCNC(=O)NNC(=O)/C(C)=C/c2ccccc2)c2ncccc2c1 (centres undefined) | – | – | – | – | 7.9 to 15 | –
COc1cc(NC(C)CCCNC(=O)NC(C(=O)NC(c2ccccc2)c2ccccc2)c2ccc(Cl)cc2)c2ncccc2c1 (centres undefined) | – | – | – | – | – | MBEC [8]: 6.25 to 50 µg/mL; MIC [9]: 25 mg/L (≈ 39.3 µM); MIC [10]: 25 mg/L (≈ 39.3 µM); MIC [11]: 6.5 mg/L (≈ 10.2 µM)
COc1cc(NC(C)CCCNC(=O)NNC(=O)/C=C/c2cc(C(F)(F)F)cc(C(F)(F)F)c2)c2ncccc2c1 (centres undefined) | – | – | – | – | 7.9 to 15 | –
COc1cc(NC(C)CCCNC(=O)/C=C/C(=O)Nc2cccc(F)c2)c2ncccc2c1 (centres undefined) | 0.11 to 0.39 | 7.74 to 18.4 | 7.74 to 18.4 | 7.74 to 18.4 | – | MBEC [5]: 6.3 µg/mL; MBEC [6]: 6.3 µg/mL
COc1cc(NC(C)CCCNC(=O)NC(CC(C)C)C(=O)NC(c2ccccc2)c2ccccc2)c2ncccc2c1 (centres undefined) | – | – | – | – | – | MIC [11]: 6.5 mg/L (≈ 11.2 µM)
COc1cc(NC(C)CCCNC(=O)NC(C(=O)NC(c2ccccc2)c2ccc(Cl)cc2)c2ccccc2)c2ncccc2c1 (centres undefined) | – | – | – | – | – | MBEC [8]: 6.25 to 50 µg/mL; MIC [9]: 25 mg/L (≈ 39.3 µM); MIC [10]: 25 mg/L (≈ 39.3 µM)

Source: ChEMBL document CHEMBL4373728, “Primaquine derivatives: Modifications of the terminal amino group” (Eur J Med Chem, 2019)
